From patent EP4703358A1, “BENZO SIX-MEMBERED HETEROCYCLIC GSPT1 PROTEIN DEGRADATION AGENT AND USE THEREOF” (China Pharmaceutical University, priority 2023, dated 2024)

How the values were obtained:
GSPT1 protein = target: T1, GSPT1 protein (Homo sapiens, UniProt P15170+Q96SW2); assay: Degradation of GSPT1 in KG-1 cells (Western blot); assay type: cell-based; set-up: percent GSPT1 degradation: dose or concentration left out as unconfirmed
T1 construct: host or cells: KG-1 cells
Experimental: KG-1 cells (ATCC) were grown in an IMDM culture medium (containing 20% FBS). After centrifugation and counting, the cell concentration was adjusted. The cells were plated onto 6-well plates at 10^6 cells/well, with 1350 µL per well. 150 µL of DMSO and the test compounds of the present disclosure (compound concentration: 200 nM) were added. The plates were incubated in an incubator at 37 °C with 5% CO2 for 4 hours. The cells were centrifuged, and the culture medium was discarded. PBS was added to wash the cells and then discarded. Whole cell lysates were prepared using a protease inhibitor cocktail (100×, Fude Biological), a protein phosphatase inhibitor cocktail (100×, Fude Biological), SuperNuclease (Beyotime), and a high-intensity RIPA lysis buffer (Thermo Fisher) and placed on ice for 30 minutes. After centrifugation, the cell debris precipitates were discarded, and the whole cell lysate supernatants were collected and transferred to new centrifuge tubes. After a BCA protein assay, samples were prepared using a 5× loading buffer (Thermo Fisher). The samples were subjected to protein electrophoresis separation in a 4-20% precast gel (SDS-PAGE gel), transferred to a PVDF membrane, then blocked with 5% NFDM/TBST at room temperature for 1 hour, incubated overnight with primary antibodies at 4 °C, and incubated with a secondary antibody at room temperature for 2 hours the next day. Signals were detected using a MINICHEMITM imaging system.
Primary antibodies: • Anti-GSPT1: Abcam ab234433 • Anti-beta actin: Fude Biological FD0060
Secondary antibody: Anti-rabbit peroxidase-linked secondary antibody: Fude Biological FDG007
The degradation effects of the compounds on GSPT1 protein are shown in Table 1, where A represents a GSPT1 protein degradation percentage of no less than 80%, B represents a degradation percentage of less than 80% but no less than 50%, C represents a degradation percentage of less than 50% but no less than 25%, and D represents a degradation percentage of less than 25%. Table 1. The degradation of GSPT1 protein by compounds

KG-1 cells = assay: Antiproliferative activity against KG-1 cells (CCK8); assay type: cell-based; settings: 72 hours
Experimental: KG-1 cells in the logarithmic growth phase were diluted in a culture medium (RPMI + 10% FBS) and plated onto 96-well plates at 5000 cells/well, and the plates were incubated in an incubator at 37 °C with 5% CO2 for 24 hours. 10 mM stock solutions of the test compounds of the present disclosure in DMSO were prepared and diluted with the culture medium to set 9 concentration gradients. Three replicate wells were set for each concentration. After compound addition, the plates were incubated in an incubator at 37 °C with 5% CO2 for 72 hours. The cell proliferation was assessed using the CCK8 method. The cell growth inhibition IC50 values of the compounds were determined using an enzyme labeling method. The IC50 values were calculated using GraphPad Prism 7 software.
The antiproliferative activity of the compounds against KG-1 cells is shown in Table 2, where A represents IC50 < 1 nM, B represents 1 ≤ IC50 < 10 nM, C represents 10 nM ≤ IC50 < 100 nM, D represents 100 nM ≤ IC50 < 1000 nM, and E represents IC50 ≥ 1000 nM. Table 2. The antiproliferative activity of compounds against KG-1 cells

[1] = KG-1 cells, compound concentration 200 nM, 4 hours

T1 sequence (P15170 whole entry): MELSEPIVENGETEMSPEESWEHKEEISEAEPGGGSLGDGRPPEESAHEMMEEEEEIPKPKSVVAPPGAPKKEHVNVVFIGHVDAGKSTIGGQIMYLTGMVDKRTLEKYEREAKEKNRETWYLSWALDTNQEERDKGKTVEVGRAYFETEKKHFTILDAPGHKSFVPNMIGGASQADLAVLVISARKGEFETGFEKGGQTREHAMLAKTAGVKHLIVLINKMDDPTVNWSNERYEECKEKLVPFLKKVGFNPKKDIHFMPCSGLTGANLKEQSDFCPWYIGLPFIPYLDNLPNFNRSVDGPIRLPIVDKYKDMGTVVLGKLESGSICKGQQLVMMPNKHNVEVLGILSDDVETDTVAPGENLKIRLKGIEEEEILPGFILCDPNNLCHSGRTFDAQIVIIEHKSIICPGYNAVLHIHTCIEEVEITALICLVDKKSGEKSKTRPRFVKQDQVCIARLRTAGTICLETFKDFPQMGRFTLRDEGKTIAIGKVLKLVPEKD
T1 sequence (Q96SW2 whole entry): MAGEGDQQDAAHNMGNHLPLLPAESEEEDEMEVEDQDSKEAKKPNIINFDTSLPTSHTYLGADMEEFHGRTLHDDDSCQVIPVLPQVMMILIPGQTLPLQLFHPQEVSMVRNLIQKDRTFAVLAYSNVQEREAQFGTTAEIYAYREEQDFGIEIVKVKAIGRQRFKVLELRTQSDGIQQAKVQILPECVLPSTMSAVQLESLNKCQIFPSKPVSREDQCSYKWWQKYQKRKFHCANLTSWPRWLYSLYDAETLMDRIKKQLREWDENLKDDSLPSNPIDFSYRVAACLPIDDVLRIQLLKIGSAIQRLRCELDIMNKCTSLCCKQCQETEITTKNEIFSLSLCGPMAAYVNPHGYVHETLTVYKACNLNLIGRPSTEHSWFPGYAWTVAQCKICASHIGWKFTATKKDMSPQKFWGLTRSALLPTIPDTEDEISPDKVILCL
T1 sequence (Q16531 whole entry partner): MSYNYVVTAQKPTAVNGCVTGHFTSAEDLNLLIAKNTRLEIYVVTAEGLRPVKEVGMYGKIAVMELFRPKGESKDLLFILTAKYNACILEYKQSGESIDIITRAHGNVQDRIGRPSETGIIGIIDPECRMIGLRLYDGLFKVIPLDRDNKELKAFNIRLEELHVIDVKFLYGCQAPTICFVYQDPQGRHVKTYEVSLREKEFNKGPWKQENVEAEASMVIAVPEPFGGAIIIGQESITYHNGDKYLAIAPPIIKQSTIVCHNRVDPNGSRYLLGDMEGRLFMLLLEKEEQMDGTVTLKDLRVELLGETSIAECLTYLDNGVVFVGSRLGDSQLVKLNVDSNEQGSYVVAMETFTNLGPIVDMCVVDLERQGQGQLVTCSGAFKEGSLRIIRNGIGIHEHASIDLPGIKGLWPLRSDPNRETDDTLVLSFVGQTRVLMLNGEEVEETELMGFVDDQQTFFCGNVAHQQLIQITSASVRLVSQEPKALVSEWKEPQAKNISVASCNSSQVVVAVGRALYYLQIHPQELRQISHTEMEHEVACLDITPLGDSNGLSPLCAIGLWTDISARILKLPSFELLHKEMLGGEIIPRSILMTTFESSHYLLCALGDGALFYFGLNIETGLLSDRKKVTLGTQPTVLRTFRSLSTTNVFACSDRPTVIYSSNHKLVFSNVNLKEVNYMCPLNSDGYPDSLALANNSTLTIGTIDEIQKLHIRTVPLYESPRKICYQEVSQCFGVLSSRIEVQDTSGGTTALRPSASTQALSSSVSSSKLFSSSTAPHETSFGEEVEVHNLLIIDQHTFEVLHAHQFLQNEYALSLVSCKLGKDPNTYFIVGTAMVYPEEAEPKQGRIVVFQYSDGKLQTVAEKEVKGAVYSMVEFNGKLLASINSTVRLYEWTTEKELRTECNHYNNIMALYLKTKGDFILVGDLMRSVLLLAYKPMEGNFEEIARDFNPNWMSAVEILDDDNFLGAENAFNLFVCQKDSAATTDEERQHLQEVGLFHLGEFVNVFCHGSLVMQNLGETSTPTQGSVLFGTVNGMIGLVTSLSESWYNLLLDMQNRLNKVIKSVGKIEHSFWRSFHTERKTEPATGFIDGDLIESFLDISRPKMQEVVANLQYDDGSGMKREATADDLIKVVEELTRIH

O=C1CCC(N2Cc3cccc(CNC(=O)C4=Cc5cc(OC(F)(F)F)ccc5OC4)c3C2=O)C(=O)N1 (centres unmarked) [Compound A-39, N-((2-(2,6-Dioxopiperidin-3-yl)-3-oxoisoindolin-4-yl)methyl)-6-(trifluoromethoxy)-2H-chromene-3-carboxamide]
percent GSPT1 degradation at 0.2 µM (GSPT1 protein; [1]): 50 to 80%
IC50 (KG-1 cells; Homo sapiens): 10 to 100 nM

Cc1ccc(C)c2c1C=C(C(=O)NCc1ccc3c(c1)CN(C1CCC(=O)NC1=O)C3=O)CO2 (centres unmarked) [Compound A-38, N-((2-(2,6-Dioxopiperidin-3-yl)-1-oxoisoindolin-5-yl)methyl)-5,8-dimethyl-2H-chromene-3-carboxamide]
percent GSPT1 degradation at 0.2 µM (GSPT1 protein; [1]): > 80%
IC50 (KG-1 cells; Homo sapiens): 10 to 100 nM

O=C1CCC(N2Cc3c(CNC(=O)C4=Cc5cc(OC(F)(F)F)ccc5OC4)cccc3C2=O)C(=O)N1 (centres unmarked) [Compound A-41, N-((2-(2,6-Dioxopiperidin-3-yl)-1-oxoisoindolin-4-yl)methyl)-6-(trifluoromethoxy)-2H-chromene-3-carboxamide]
percent GSPT1 degradation at 0.2 µM (GSPT1 protein; [1]): 50 to 80%
IC50 (KG-1 cells; Homo sapiens): 10 to 100 nM

Cc1cc2c(cc1C)OCC(C(=O)NCc1ccc3c(c1)CN(C1CCC(=O)NC1=O)C3=O)=C2 (centres unmarked) [Compound A-37, N-((2-(2,6-Dioxopiperidin-3-yl)-1-oxoisoindolin-5-yl)methyl)-6,7-dimethyl-2H-chromene-3-carboxamide]
percent GSPT1 degradation at 0.2 µM (GSPT1 protein; [1]): > 80%
IC50 (KG-1 cells; Homo sapiens): 10 to 100 nM

O=C1CCC(N2Cc3cc(CNC(=O)C4COc5ccc(F)cc5C4)ccc3C2=O)C(=O)N1 (centres unmarked) [Compound B-2, N-((2-(2,6-Dioxopiperidin-3-yl)-1-oxoisoindolin-5-yl)methyl)-6-fluorochromane-3-carboxamide]
percent GSPT1 degradation at 0.2 µM (GSPT1 protein; [1]): > 80%
IC50 (KG-1 cells; Homo sapiens): 1 to 10 nM

O=C1CCC(N2Cc3cc(CNC(=O)C4=Cc5c(F)cc(F)cc5OC4)ccc3C2=O)C(=O)N1 (centres unmarked) [Compound A-34, N-((2-(2,6-Dioxopiperidin-3-yl)-1-oxoisoindolin-5-yl)methyl)-5,7-difluoro-2H-chromene-3-carboxamide]
percent GSPT1 degradation at 0.2 µM (GSPT1 protein; [1]): > 80%
IC50 (KG-1 cells; Homo sapiens): 1 to 10 nM

C=CC(=O)Nc1ccc2c(c1)C=C(C(=O)NCc1ccc3c(c1)CN(C1CCC(=O)NC1=O)C3=O)CO2 (centres unmarked) [Compound A-24, N-((2-(2,6-Dioxopiperidin-3-yl)-1-oxoisoindolin-5-yl)methyl)-6-(acrylamido)-2H-chromene-3-carboxamide]
percent GSPT1 degradation at 0.2 µM (GSPT1 protein; [1]): 25 to 50%
IC50 (KG-1 cells; Homo sapiens): ≥ 1000 nM

COc1ccc2c(c1)C=C(C(=O)NCc1ccc3c(c1)CN(C1CCC(=O)NC1=O)C3=O)CO2 (centres unmarked) [Compound A-8, N-((2-(2,6-Dioxopiperidin-3-yl)-1-oxoisoindolin-5-yl)methyl)-6-methoxy-2H-chromene-3-carboxamide]
percent GSPT1 degradation at 0.2 µM (GSPT1 protein; [1]): 50 to 80%
IC50 (KG-1 cells; Homo sapiens): 10 to 100 nM

CC(=O)Nc1ccc2c(c1)C=C(C(=O)NCc1ccc3c(c1)CN(C1CCC(=O)NC1=O)C3=O)CO2 (centres unmarked) [Compound A-23, N-((2-(2,6-Dioxopiperidin-3-yl)-1-oxoisoindolin-5-yl)methyl)-6-(acetamido)-2H-chromene-3-carboxamide]
percent GSPT1 degradation at 0.2 µM (GSPT1 protein; [1]): 25 to 50%
IC50 (KG-1 cells; Homo sapiens): ≥ 1000 nM

O=C1CCC(N2Cc3ccc(CNC(=O)C4=Cc5cc(OC(F)(F)F)ccc5OC4)cc3C2=O)C(=O)N1 (centres unmarked) [Compound A-40, N-((2-(2,6-Dioxopiperidin-3-yl)-3-oxoisoindolin-5-yl)methyl)-6-(trifluoromethoxy)-2H-chromene-3-carboxamide]
percent GSPT1 degradation at 0.2 µM (GSPT1 protein; [1]): 50 to 80%
IC50 (KG-1 cells; Homo sapiens): 10 to 100 nM

O=C1CCC(N2Cc3cc(CNC(=O)C4=Cc5cc(-c6ccccc6)ccc5OC4)ccc3C2=O)C(=O)N1 (centres unmarked) [Compound A-17, N-((2-(2,6-Dioxopiperidin-3-yl)-1-oxoisoindolin-5-yl)methyl)-6-phenyl-2H-chromene-3-carboxamide]
percent GSPT1 degradation at 0.2 µM (GSPT1 protein; [1]): 50 to 80%
IC50 (KG-1 cells; Homo sapiens): 100 to 1000 nM

O=C1CCC(N2Cc3cc(CNC(=O)C4=Cc5cccc(OC(F)(F)F)c5OC4)ccc3C2=O)C(=O)N1 (centres unmarked) [Compound A-19, N-((2-(2,6-Dioxopiperidin-3-yl)-1-oxoisoindolin-5-yl)methyl)-8-trifluoromethoxy-2H-chromene-3-carboxamide]
percent GSPT1 degradation at 0.2 µM (GSPT1 protein; [1]): > 80%
IC50 (KG-1 cells; Homo sapiens): 1 to 10 nM

Cc1cccc2c1C=C(C(=O)NCc1ccc3c(c1)CN(C1CCC(=O)NC1=O)C3=O)CO2 (centres unmarked) [Compound A-22, N-((2-(2,6-Dioxopiperidin-3-yl)-1-oxoisoindolin-5-yl)methyl)-5-methyl-2H-chromene-3-carboxamide]
percent GSPT1 degradation at 0.2 µM (GSPT1 protein; [1]): > 80%
IC50 (KG-1 cells; Homo sapiens): 1 to 10 nM

O=C1CCC(N2Cc3cc(CNC(=O)C4=Cc5cc(NC(=O)C6CC6)ccc5OC4)ccc3C2=O)C(=O)N1 (centres unmarked) [Compound A-26, N-((2-(2,6-Dioxopiperidin-3-yl)-1-oxoisoindolin-5-yl)methyl)-6-(cyclopropanecarboxamido)-2H-chromene-3-carboxamide]
percent GSPT1 degradation at 0.2 µM (GSPT1 protein; [1]): < 25%
IC50 (KG-1 cells; Homo sapiens): 100 to 1000 nM

COc1cccc2c1OCC(C(=O)NCc1ccc3c(c1)CN(C1CCC(=O)NC1=O)C3=O)=C2 (centres unmarked) [Compound A-20, N-((2-(2,6-Dioxopiperidin-3-yl)-1-oxoisoindolin-5-yl)methyl)-8-methoxy-2H-chromene-3-carboxamide]
percent GSPT1 degradation at 0.2 µM (GSPT1 protein; [1]): > 80%
IC50 (KG-1 cells; Homo sapiens): 1 to 10 nM

O=C1CCC(N2Cc3c(ccc(CNC(=O)C4=Cc5cccc(OC(F)(F)F)c5OC4)c3F)C2=O)C(=O)N1 (centres unmarked) [Compound A-43, N-((2-(2,6-Dioxopiperidin-3-yl)-4-fluoro-1-oxoisoindolin-5-yl)methyl)-8-(trifluoromethoxy)-2H-chromene-3-carboxamide]
percent GSPT1 degradation at 0.2 µM (GSPT1 protein; [1]): > 80%
IC50 (KG-1 cells; Homo sapiens): 1 to 10 nM

O=C1CCC(N2Cc3cc(CNC(=O)C4=Cc5cc(Cl)ccc5OC4)ccc3C2=O)C(=O)N1 (centres unmarked) [Compound A-6, N-((2-(2,6-Dioxopiperidin-3-yl)-1-oxoisoindolin-5-yl)methyl)-6-chloro-2H-chromene-3-carboxamide]
percent GSPT1 degradation (GSPT1 protein; KG-1, 4 h, read-out: GSPT1 degradation): > 80%
IC50 (KG-1 cells; Homo sapiens): 10 to 100 nM

Cc1cc2c(cc1Cl)OCC(C(=O)NCc1ccc3c(c1)CN(C1CCC(=O)NC1=O)C3=O)=C2 (centres unmarked) [Compound A-29, N-((2-(2,6-Dioxopiperidin-3-yl)-1-oxoisoindolin-5-yl)methyl)-7-chloro-6-methyl-2H-chromene-3-carboxamide]
percent GSPT1 degradation at 0.2 µM (GSPT1 protein; [1]): > 80%
IC50 (KG-1 cells; Homo sapiens): 10 to 100 nM

O=C1CCC(N2Cc3cc(CNC(=O)C4=Cc5cc(NC(=O)C6CCC6)ccc5OC4)ccc3C2=O)C(=O)N1 (centres unmarked) [Compound A-27, N-((2-(2,6-Dioxopiperidin-3-yl)-1-oxoisoindolin-5-yl)methyl)-6-(cyclobutanecarboxamido)-2H-chromene-3-carboxamide]
percent GSPT1 degradation at 0.2 µM (GSPT1 protein; [1]): < 25%
IC50 (KG-1 cells; Homo sapiens): 100 to 1000 nM

Cc1cc2c(cc1Cl)C=C(C(=O)NCc1ccc3c(c1)CN(C1CCC(=O)NC1=O)C3=O)CO2 (centres unmarked) [Compound A-28]
GSPT1 degradation (GSPT1 protein; [1]): A (a GSPT1 protein degradation percentage of no less than 80%)
IC50 (KG-1 cells): 10 to 100 nM

C#Cc1ccc2c(c1)C=C(C(=O)NCc1ccc3c(c1)CN(C1CCC(=O)NC1=O)C3=O)CO2 (centres unmarked) [Compound A-15, N-((2-(2,6-Dioxopiperidin-3-yl)-1-oxoisoindolin-5-yl)methyl)-6-ethynyl-2H-chromene-3-carboxamide]
percent GSPT1 degradation at 0.2 µM (GSPT1 protein; [1]): 50 to 80%
IC50 (KG-1 cells; Homo sapiens): 100 to 1000 nM

Cc1cc(F)cc2c1OCC(C(=O)NCc1ccc3c(c1)CN(C1CCC(=O)NC1=O)C3=O)=C2 (centres unmarked) [Compound A-31, N-((2-(2,6-Dioxopiperidin-3-yl)-1-oxoisoindolin-5-yl)methyl)-6-fluoro-8-methyl-2H-chromene-3-carboxamide]
percent GSPT1 degradation at 0.2 µM (GSPT1 protein; [1]): > 80%
IC50 (KG-1 cells; Homo sapiens): 1 to 10 nM
